Converted amounts (≈) assume the structure as drawn. Read-outs that look alike come from different tables or passages of the source.
Columns and labels:
[1] = Amorphous solid dispersion screen for Compound 1A: HT-XRPD after accelerated aging conditions (40° C./70% RH, 4 weeks); assay type: physicochemical; settings: HT-XRPD form after accelerated aging conditions, 4 weeks at 40° C. and 70% RH
Procedure: The plates were mounted on a Bruker General Area Detector Diffraction System (GADDS) equipped with a VÅNTEC-500 gas area detector corrected for intensity and geometric variations. The calibration of the measurement accuracy (peaks position) was performed using NIST SRM1976 standard (Corundum).
No background subtraction or curve smoothing was applied to the XRPD patterns.

[2] = Solubility determination of amorphous solid dispersions of Compound 1A in water, SIF and SGF at 37° C.; assay type: physicochemical
Procedure: For the solubility determination, suspensions of Compound 1A and dispersions were prepared in 3 mL aqueous medium. […] Samples were taken after 0.5, 1 and 2 hours, filtered over a PTFE spin filter and the concentration of Enasidenib in solution was determined by HPLC analysis. In the next sections the solubility results are discussed per aqueous media.
The concentration of API in solution was determined by HPLC analysis after 0.5, 1 and 2 hours.

[3] = Kinetic solubility of Compound 1A in SIF and SGF (DMSO solutions added to medium); assay type: physicochemical; settings: 80 μL of 60, 30, 15 and 5 mg/mL DMSO solutions added to 4 mL
Procedure: Prior to the solvent shift experiments, the kinetic solubility of Compound 1A was tested in simulated intestinal fluid (SIF) and simulated gastric fluid (SGF) in order to choose the Compound 1A concentration suitable for the solvent shift experiments. Four different Compound 1A solutions (in DMSO) were prepared with concentrations of 60, 30, 15 and 5 mg/mL. Subsequently, 80 μL of these solutions were added to 4 mL of SGF and to 4 mL of SIF.
For the solvent shift experiments in SIF, Compound 1A concentration in DMSO of 5 mg/mL was used.

[4] = 37° C.
[5] = physchem; settings: thermodynamic from solid
[6] = Quantitative (24-hour shake flask) thermodynamic solubility of Compound 1A in organic solvents and water; assay type: physicochemical; settings: room temperature
Procedure: The solubility of Compound 1A was quantitatively assessed in 10 different organic solvents and water. Slurries were prepared by mixing 30 mg of Compound 1A with an appropriate solvent volume. A stirring bean was added and the suspensions were stirring (500 rpm) at room temperature for 24 hours. An aliquot of the suspension was transferred into a spin filter (nylon, 0.2 μm). The solubility of the filtered solution was determined by HPLC.

[7] = Anti-precipitant screening of Compound 1A by solvent shift method in SIF; assay type: physicochemical; settings: control experiment, crystalline solid, no polymer
Procedure: The anti-precipitant screen by the solvent shift method was used for discovering polymers that can maintain the supersaturated state of Compound 1A in solution. Based on the results of this screen, polymers were selected for the development of the ASD.
The concentration of free base in solution was determined by HPLC analysis.

[8] = thermodynamic from solid, Water

CC(C)(O)CNc1nc(Nc2ccnc(C(F)(F)F)c2)nc(-c2cccc(C(F)(F)F)n2)n1 [ASD102]
XRPD AAC [1]: Form 1
Concentration API ([2]; SGF, 0.5 hours): 20800 ng/mL
Concentration API ([2]; SGF, 1 hour): 13000 ng/mL
Concentration API ([2]; SGF, 2 hours): 10900 ng/mL
Concentration API ([2]; SIF, 0.5 hours): <100 ng/mL
Concentration API ([2]; SIF, 1 hour): <100 ng/mL
Concentration API ([2]; SIF, 2 hours): <100 ng/mL
Concentration API ([2]; Water, 0.5 hours): <100 ng/mL
Concentration API ([2]; Water, 1 hour): <100 ng/mL
Concentration API ([2]; Water, 2 hours): <100 ng/mL

CC(C)(O)CNc1nc(Nc2ccnc(C(F)(F)F)c2)nc(-c2cccc(C(F)(F)F)n2)n1 [Compound 1A, 2-methyl-1-[(4-[6-(trifluoromethyl)pyridin-2-yl]-6-{[2-(trifluoromethyl)pyridin-4-yl]amino}-1,3,5-triazin-2-yl)amino]propan-2-ol]
Kinetic solubility (precipitation) ([3]; SGF): precipitation was observed when using the solution with the highest concentration
Kinetic solubility (precipitation) ([3]; SIF): precipitated using all four concentrations
Concentration API (μg/mL) 0.5 h ([4]; SGF): 21.9 µg/mL
pH 0.5 h ([4]; SGF): 1.24
Concentration API (μg/mL) 1 h ([4]; SGF): 17.2 µg/mL
Concentration API (μg/mL) 2 h ([4]; SGF): 14.6 µg/mL
pH 2 h ([4]; SGF): 1.23
Concentration API (μg/mL) 0.5 h ([4]; SIF): 0.4 µg/mL
pH 0.5 h ([4]; SIF): 6.60
Concentration API (μg/mL) 1 h ([4]; SIF): <0.1 µg/mL
Concentration API (μg/mL) 2 h ([4]; SIF): <0.1 µg/mL
pH 2 h ([4]; SIF): 6.44
Concentration API (μg/mL) 0.5 h ([4]; Water): 0.7 µg/mL
pH 0.5 h ([4]; Water): 2.64
Concentration API (μg/mL) 1 h ([4]; Water): 0.4 µg/mL
Concentration API (μg/mL) 2 h ([4]; Water): 0.3 µg/mL
pH 2 h ([4]; Water): 2.15
solubility at 24 h ([5]; 1,4-dioxane, organic solvent or mixture): 400 µg/mL (≈ 0.845 mM)
solubility at 24 h ([5]; 2-propanol, organic solvent or mixture): 1400 µg/mL (≈ 2.96 mM)
solubility at 24 h ([5]; acetone, organic solvent or mixture): 900 µg/mL (≈ 1.9 mM)
solubility at 24 h ([5]; acetonitrile, organic solvent or mixture): 500 µg/mL (≈ 1.06 mM)
solubility at 24 h ([5]; chloroform, organic solvent or mixture): 200 µg/mL (≈ 0.422 mM)
solubility at 24 h ([5]; ethanol, organic solvent or mixture): 7300 µg/mL (≈ 15.4 mM)
solubility at 24 h ([5]; ethyl acetate, organic solvent or mixture): 200 µg/mL (≈ 0.422 mM)
solubility at 24 h ([5]; methanol, organic solvent or mixture): 35600 µg/mL (≈ 75.2 mM)
solubility at 24 h ([5]; tetrahydrofuran, organic solvent or mixture): 1800 µg/mL (≈ 3.8 mM)
solubility at 24 h ([5]; water): < 100 µg/mL
Concentration API ([2]; SGF, 0.5 hours): ~80000 ng/mL
Concentration API ([2]; SGF, 0.5 hours, listed as SM): 75800 ng/mL
Concentration API ([2]; SGF, 1 hour): 41300 ng/mL
Concentration API ([2]; SGF, 2 hours): about 20 μg/mL
Concentration API ([2]; SGF, 2 hours, listed as SM): 19400 ng/mL
Concentration API ([2]; SIF, 0.5 hours): 300 ng/mL
Concentration API ([2]; SIF, 1 hour): <100 ng/mL
Concentration API ([2]; SIF, 2 hours): <100 ng/mL
Concentration API ([2]; Water, 0.5 hours, listed as SM): 1000 ng/mL
Concentration API ([2]; Water, 1 hour): 400 ng/mL
Concentration API ([2]; Water, 2 hours): <100 ng/mL
solubility [2, 8]: ~1 µg/mL (≈ 0.00211 mM)
solubility ([6]; Water): practically insoluble
solubility at 24 h ([6]; organic solvent or mixture, thermodynamic from solid, 1,4-Dioxane): 69200 µg/mL (≈ 146 mM)
solubility at 24 h ([6]; organic solvent or mixture, thermodynamic from solid, 2-Propanol): 229000 µg/mL (≈ 484 mM)
solubility at 24 h ([6]; organic solvent or mixture, thermodynamic from solid, Acetone): 209000 µg/mL (≈ 442 mM)
solubility at 24 h ([6]; organic solvent or mixture, thermodynamic from solid, Acetonitrile): 14700 µg/mL (≈ 31.1 mM)
solubility at 24 h ([6]; organic solvent or mixture, thermodynamic from solid, Chloroform): 70600 µg/mL (≈ 149 mM)
solubility at 24 h ([6]; organic solvent or mixture, thermodynamic from solid, Ethanol): > 408000 µg/mL
solubility at 24 h ([6]; organic solvent or mixture, thermodynamic from solid, Ethyl acetate): 127000 µg/mL (≈ 268 mM)
solubility at 24 h ([6]; organic solvent or mixture, thermodynamic from solid, Methanol): > 463000 µg/mL
solubility at 24 h ([6]; organic solvent or mixture, thermodynamic from solid, Tetrahydrofuran): > 429000 µg/mL
solubility at 24 h [6, 8]: < 100 µg/mL
Solubility of crystalline Compound 1A in SIF [7]: practically insoluble
